Values after ≈ are worked out from the molar mass of the structure shown.
Assays:
Format in all cases: cell-based
Fusarium graminearum = test: microbe, parasite or virus in culture; settings: for IC50: % of composition stock solution / IC50: concentration of copper or zinc in the composition, or phosphorous acid: PDA, 3 days; for IC50: concentration of copper or zinc in the composition, or phosphorous acid: Cu—Zn#12: 50% each of elemental copper and zinc; for Potassium sorbate synergy with composition/compound: potassium sorbate and composition/compound both at their IC50 concentrations
[1] = system: Xanthomonas oryzae (strain Gx0372); test: microbe, parasite or virus in culture; settings: 24 hours at 28° C.; highest concentration 400 mg/L (1% of stock solutions)
[2] = system: Ralstonia solanacearum (strain PSS4 from tomato); test: microbe, parasite or virus in culture; settings: 24 hours at 28° C.; highest concentration 400 mg/L (1% of stock solutions)
Alternaria alternata = test: Fungal growth inhibition assay (hyphal growth diameter on PDA); settings: PDA, 2 days; for IC50: concentration of copper or zinc in the composition, or phosphorous acid: Cu—Zn#12: 50% each of elemental copper and zinc
Botrytis cinerea = test: as above; settings: for IC50: % of composition stock solution / IC50: concentration of copper or zinc in the composition, or phosphorous acid: PDA, 2 days; for IC50: concentration of copper or zinc in the composition, or phosphorous acid: Cu—Zn#12: 50% each of elemental copper and zinc; for Potassium sorbate synergy with composition/compound: potassium sorbate and composition/compound both at their IC50 concentrations
Aspergillus niger = test: as above; settings: for IC50: % of composition stock solution / IC50: concentration of copper or zinc in the composition, or phosphorous acid: PDA, 6 days; for IC50: concentration of copper or zinc in the composition, or phosphorous acid: Cu—Zn#12: 50% each of elemental copper and zinc; for Potassium sorbate synergy with composition/compound: potassium sorbate and composition/compound both at their IC50 concentrations
Magnaporthe oryzae = test: microbe, parasite or virus in culture; settings: PDA; for IC50: % of composition stock solution / IC50: concentration of copper or zinc in the composition, or phosphorous acid: 4 days; for IC50: concentration of copper or zinc in the composition, or phosphorous acid: Cu—Zn#12: 50% each of elemental copper and zinc
[3] = system: Xanthomonas campestris (strain Race 5 from brassica); test: Bacterial microplate culture (resazurin MIC); settings: 24 hours at 28° C.; highest concentration 400 mg/L (1% of stock solutions)
Rhizoctonia solani = test: Fungal growth inhibition assay (hyphal growth diameter on PDA); settings: for IC50: % of composition stock solution / IC50: concentration of copper or zinc in the composition, or phosphorous acid: PDA, 1 day; for IC50: concentration of copper or zinc in the composition, or phosphorous acid: Cu—Zn# compositions: copper plus zinc; for Potassium sorbate synergy with composition/compound: potassium sorbate and composition/compound both at their IC50 concentrations
[4] = system: Pseudomonas syringae (pv. tomato DC3000); test: Bacterial microplate culture (resazurin MIC); settings: 24 hours at 28° C.; highest concentration 400 mg/L (1% of stock solutions)
plant pathogenic fungi = test: organism not typed; settings: summary of TABLE 8
Ustilago maydis = test: Fungal growth inhibition assay (hyphal growth diameter on PDA); design: Potassium sorbate synergy with composition/compound: key to the marks not given beside the values; settings: for IC50: % of composition stock solution / IC50: concentration of copper or zinc in the composition, or phosphorous acid: PDA, 5 days; for IC50: concentration of copper or zinc in the composition, or phosphorous acid: Cu—Zn#12: 50% each of elemental copper and zinc; for Potassium sorbate synergy with composition/compound: potassium sorbate and composition/compound both at their IC50 concentrations
Trichophyton rubrum = test: Fungal growth inhibition assay with Trichophyton rubrum; settings: PDA, 33° C., 7 days; for T. rubrum IC50 values: Concentration: Cu—Zn#12: 50% each of elemental copper and zinc
Method: To assess the effects of compositions on fungal growth, 10 microliters of the test compositions diluted in sterile distilled water were placed in the wells of a 12-well tissue culture plate and 1 milliliter of liquid PDA was added by pipette to each well. Where multiple samples were added to each well, the 10 microliter drops were kept separate until they were mixed by the addition of hot liquid PDA and the plate was then agitated to evenly distribute the test composition(s) evenly through the agar (distilled water was used as vehicle control) and then the agar was allowed to set. For most strains (see TABLE 2), plugs of agar containing fungal hyphae (2 to 3 millimeters in diameter) from the edge of an established fungal culture were carefully cut out using a scalpel and inserted into holes cut in the centre of the agar in each well of the 12-well plate. With B. cinerea and U. maydis, mature cultures were washed with 3 ml of sterile distilled water and the spore suspensions obtained were adjusted to O.D. (at 600 nanometers) of 1.0 and 1.5, respectively. A small hole (˜1 millimeter) was made in the center of the PDA in each well with a yellow pipette tip and 1.5 microliters of spore suspension was carefully pipetted into the hole. […] To assess the effects of compositions on fungal growth in all experiments, the diameter of the hyphal growth was measured twice at a 90° angle using a ruler and the average diameter in millimeters was calculated. If no fungal growth could be detected by eye, the cultures were observed by phase microscopy (40×) to confirm that there was no growth (NG).
A clinical isolate of T. rubrum (strain 7107996; Phylum: Acomycota) was kindly provided by Dr. Richard Barton, Leeds University, UK. The growth assays with T. rubrum were as described in EXAMPLE 1, except this strain was cultured at 33° C. on PDA for 6 or 7 days when growth was assessed. T. rubrum cultures were maintained on Sabouraud dextrose agar at 33° C.
FIG. 8 is a graph depicting the effects of selected compositions and compounds on the growth of Trichophyton rubrum. The culture period was 7 days. Growth in the control cultures was 20±0 millimeters (mean±SD for 2 experiments).

| Compound | IC50: % of composition stock solution (Fusarium graminearum) | IC50: concentration of copper or zinc in the composition, or phosphorous acid (Fusarium graminearum) [µg/mL] | MIC [1] [µg/mL] | MIC [2] [µg/mL] | IC50: % of composition stock solution (Alternaria alternata) | IC50: concentration of copper or zinc in the composition, or phosphorous acid (Alternaria alternata) [µg/mL] | IC50: % of composition stock solution (Botrytis cinerea) | IC50: concentration of copper or zinc in the composition, or phosphorous acid (Botrytis cinerea) [µg/mL] | Potassium sorbate synergy with composition/compound (Botrytis cinerea) | IC50: % of composition stock solution (Aspergillus niger) | IC50: concentration of copper or zinc in the composition, or phosphorous acid (Aspergillus niger) [µg/mL] | IC50: % of composition stock solution (Magnaporthe oryzae) | IC50: concentration of copper or zinc in the composition, or phosphorous acid (Magnaporthe oryzae) [µg/mL] | MIC [3] [µg/mL] | IC50: % of composition stock solution (Rhizoctonia solani) | IC50: concentration of copper or zinc in the composition, or phosphorous acid (Rhizoctonia solani) [µg/mL] | MIC [4] [µg/mL] | fungal strains (of those tested) showing strong synergy with KS (plant pathogenic fungi) | IC50: % of composition stock solution (Ustilago maydis) | IC50: concentration of copper or zinc in the composition, or phosphorous acid (Ustilago maydis) [µg/mL] | also measured |
| --- | --- | --- | --- | --- | --- | --- | --- | --- | --- | --- | --- | --- | --- | --- | --- | --- | --- | --- | --- | --- | --- |
| O=S(=O)([O-])[O-].[Cu+2] [Copper sulfate, copper sulfate] | 0.22 % of composition stock solution | 88 | 50 | 50 | 0.44 % of composition stock solution | 176 | 0.46 % of composition stock solution | 184 | ++ | 0.19 % of composition stock solution | 76 | 0.51 % of composition stock solution | 204 | 50 | 0.39 % of composition stock solution | 156 | 100 | 6/7 | 0.43 % of composition stock solution | 172 | IC50: % of composition stock solution (Fusarium graminearum; listed as copper sulfate): 0.22 % of composition stock solutio; IC50: % of composition stock solution (Magnaporthe oryzae; listed as copper sulfate): 0.51 % of composition stock solutio; T. rubrum IC50 values: % of stock solution (Trichophyton rubrum): 0.20 % of stock solution; T. rubrum IC50 values: Concentration (Trichophyton rubrum): 80 µg/mL |
| OP(O)O [Phosphorous acid, phosphorous acid] | 0.39 % of composition stock solution | 156 | 400 (≈ 4.88 mM) | 100 (≈ 1.22 mM) | 0.51 % of composition stock solution | 204 | 0.63 % of composition stock solution | 252 | + | 0.19 % of composition stock solution | 76 | 0.57 % of composition stock solution | 228 | >400 | 0.64 % of composition stock solution | 256 | 200 (≈ 2.44 mM) | 4/7 | 0.75 % of composition stock solution | 300 | IC50: % of composition stock solution (Fusarium graminearum; listed as phosphorous acid): 0.78 % of composition stock solutio; Potassium sorbate synergy with composition/compound (Aspergillus niger): +; IC50: % of composition stock solution (Magnaporthe oryzae; listed as phosphorous acid): 0.57 % of composition stock solutio; Potassium sorbate synergy with composition/compound (Ustilago maydis): ++; T. rubrum IC50 values: % of stock solution (Trichophyton rubrum): 0.05 % of stock solution; T. rubrum IC50 values: Concentration (Trichophyton rubrum): 20 µg/mL |
| O=S(=O)([O-])[O-].[Zn+2] [Zinc sulfate, zinc sulfate] | 0.66 % of composition stock solution | 264 | 400 | >400 | 0.62 % of composition stock solution | 248 | 0.52 % of composition stock solution | 208 | + | 0.25 % of composition stock solution | 100 | 0.48 % of composition stock solution | 192 | >400 | 0.33 % of composition stock solution | 132 | 400 | 2 strains | 0.56 % of composition stock solution | 224 | IC50: % of composition stock solution (Fusarium graminearum; listed as zinc sulfate): 0.66 % of composition stock solutio; Potassium sorbate synergy with composition/compound (Fusarium graminearum): +; Potassium sorbate synergy with composition/compound (Aspergillus niger): +; IC50: % of composition stock solution (Magnaporthe oryzae; listed as zinc sulfate): 0.48 % of composition stock solutio; Potassium sorbate synergy with composition/compound (Rhizoctonia solani): +; Potassium sorbate synergy with composition/compound (Ustilago maydis): ++; T. rubrum IC50 values: % of stock solution (Trichophyton rubrum): 0.25 % of stock solution; T. rubrum IC50 values: Concentration (Trichophyton rubrum): 100 µg/mL |
| Potassium phosphite | 0.78 % of composition stock solution | – | – | – | 1.1 % of composition stock solution | – | 0.67 % of composition stock solution | – | + | 0.19 % of composition stock solution | – | 3.7 % of composition stock solution | – | – | 0.93 % of composition stock solution | – | – | 2 strains | 1.3 % of composition stock solution | – | Potassium sorbate synergy with composition/compound (Fusarium graminearum): ++; Potassium sorbate synergy with composition/compound (Aspergillus niger): +; IC50 fold higher than the Cu#, Cu—Zn# or Zn# compositions (Magnaporthe oryzae): 13.7 fold; Potassium sorbate synergy with composition/compound (Rhizoctonia solani): ++; Potassium sorbate synergy with composition/compound (Ustilago maydis): ++ |
